Test results taken from ChEMBL document CHEMBL4052689, “Discovery and optimization of 3-(4-aryl/heteroarylsulfonyl)piperazin-1-yl)-6-(piperidin-1-yl)pyridazines as novel, CNS penetrant pan-muscarinic antagonists” (Bioorg Med Chem Lett, 2017).

What was measured:
Plasma [1] = test: Protein binding in human plasma; assay type: ADME, cell-free
[2] = target: T1, Muscarinic acetylcholine receptor M4 (Homo sapiens, UniProt P08173); test: Antagonist activity at human recombinant muscarinic M4 receptor expressed in CHO cells co-transfected with Gqi5 in presence of EC80 acetylcholine by calcium mobilization assay; assay type: functional, cell-based
T1 sequence (P08173 whole entry): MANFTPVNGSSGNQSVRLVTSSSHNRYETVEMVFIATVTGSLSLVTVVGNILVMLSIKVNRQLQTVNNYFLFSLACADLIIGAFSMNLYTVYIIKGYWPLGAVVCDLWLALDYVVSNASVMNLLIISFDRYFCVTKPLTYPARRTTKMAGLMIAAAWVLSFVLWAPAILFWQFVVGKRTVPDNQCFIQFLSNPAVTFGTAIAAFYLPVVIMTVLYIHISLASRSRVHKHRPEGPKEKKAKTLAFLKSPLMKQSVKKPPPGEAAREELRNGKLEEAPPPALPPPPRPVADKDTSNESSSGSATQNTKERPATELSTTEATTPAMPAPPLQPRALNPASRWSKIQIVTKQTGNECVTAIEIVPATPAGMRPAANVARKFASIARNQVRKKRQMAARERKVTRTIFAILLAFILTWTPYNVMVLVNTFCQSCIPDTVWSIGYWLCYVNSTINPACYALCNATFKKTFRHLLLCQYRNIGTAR

Plasma [3] = test: Protein binding in rat plasma; assay type: ADME, cell-free
[4] = target: T2, Muscarinic acetylcholine receptor M4 (Homo sapiens) (UniProt P08173); test: Antagonist activity at human recombinant muscarinic M4 receptor expressed in CHO cells co-transfected with Gqi5 assessed as acetylcholine-induced response in presence of EC80 acetylcholine by calcium mobilization assay relative to untreated control; assay type: functional, cell-based; design: scale not given: the % may be the effect or the level left
T2 sequence (whole entry): T1 sequence (P08173 whole entry)

[5] = target: T1, Muscarinic acetylcholine receptor M4; test: Antagonist activity at human muscarinic M4 receptor

| Structure (SMILES) | PPB (Plasma [1]) | IC50 ([2]; read-out: IC50) | PPB (Plasma [3]) | Activity [4] | IC50 ([2]; read-out: pIC50 (converted)) | IC50 [5] |
| --- | --- | --- | --- | --- | --- | --- |
| C[C@H]1CCCCN1c1ccc(N2CCN(S(=O)(=O)c3ccccc3)CC2)nn1 | Active | 2570 nM | Active | 8% | – | – |
| Cc1noc(C)c1S(=O)(=O)N1CCN(c2ccc(N3CCCCCC3)nn2)CC1 | – | 430 nM | – | 8% | 407 nM | – |
| CC1(C)CCCN(c2ccc(N3CCN(S(=O)(=O)c4ccc5c(c4)OCO5)CC3)nn2)C1 | – | 470 nM | – | 14% | 457 nM | – |
| C[C@H]1CCCCN1c1ccc(N2CCN(S(=O)(=O)C3CCCCC3)CC2)nn1 | Active | 4020 nM | Active | 51% | – | – |
| Cc1noc(C)c1S(=O)(=O)N1CCN(c2ccc(N3CCOC[C@@H]3C)nn2)CC1 | – | > 10000 nM | – | 66% | – | – |
| CC1CCCCN1c1ccc(N2CCN(S(=O)(=O)c3ccccc3Cl)CC2)nn1 (racemic) | – | 530 nM | – | 9.2% | – | 1000 nM |
| C[C@H]1CCCCN1c1ccc(N2CCN(S(=O)(=O)c3ccc(Cl)cc3)CC2)nn1 | Active | 2340 nM | Active | 30% | 2290 nM | – |
| Cc1noc(C)c1S(=O)(=O)N1CCN(c2ccc(N3CCC[C@@H]3C)nn2)CC1 | – | 3310 nM | – | 10% | – | – |
| C[C@H]1CCCN1c1ccc(N2CCN(S(=O)(=O)c3ccccc3Cl)CC2)nn1 | – | 2900 nM | – | 9% | – | – |
| O=S(=O)(c1ccc2c(c1)OCO2)N1CCN(c2ccc(N3CCCCCC3)nn2)CC1 | – | 290 nM | – | 20% | – | – |
| C[C@H]1CCCCN1c1ccc(N2CCN(S(=O)(=O)c3nccn3C)CC2)nn1 | Active | 1600 nM | Active | 8% | – | – |
| O=S(=O)(c1ccccc1Cl)N1CCN(c2ccc(N3CCCCC3)nn2)CC1 | – | 5580 nM | – | 12% | 5370 nM | – |
| CC1(C)CCCN(c2ccc(N3CCN(S(=O)(=O)c4ccccc4Cl)CC3)nn2)C1 | – | 940 nM | – | 5% | – | – |
| C[C@H]1CCCCN1c1ccc(N2CCN(S(=O)(=O)c3ccccc3C(F)(F)F)CC2)nn1 | Active | 520 nM | Active | 4% | – | – |
| C[C@H]1COCCN1c1ccc(N2CCN(S(=O)(=O)c3ccccc3Cl)CC2)nn1 | – | > 10000 nM | – | 56% | – | – |
| C[C@H]1CCCCN1c1ccc(N2CCN(S(=O)(=O)c3ccc4c(c3)OCO4)CC2)cc1 | – | 1330 nM | – | – | – | – |

| Structure (SMILES) | PPB (Plasma [1]) | IC50 ([2]; read-out: IC50) | PPB (Plasma [3]) | Activity [4] | IC50 ([2]; read-out: pIC50 (converted)) | IC50 [5] |
| --- | --- | --- | --- | --- | --- | --- |
| Cc1noc(C)c1S(=O)(=O)N1CCN(c2ccc(N3CCCC[C@@H]3C)nn2)CC1 | Active | 90 nM | Active | 6% | – | – |
| C[C@H]1CCCCN1c1ccc(N2CCN(S(=O)(=O)c3ccc4c(c3)OCO4)CC2)cn1 | – | > 10000 nM | – | – | – | – |
| C[C@@H]1CCCCN1c1ccc(N2CCN(S(=O)(=O)c3ccccc3Cl)CC2)nn1 | – | 6080 nM | – | 12% | 5750 nM | – |
| COc1ccccc1S(=O)(=O)N1CCN(c2ccc(N3CCCC[C@@H]3C)nn2)CC1 | Active | 2380 nM | Active | 11% | – | – |
| C[C@H]1COCCN1c1ccc(N2CCN(S(=O)(=O)c3ccc4c(c3)OCO4)CC2)nn1 | – | > 10000 nM | – | 63% | – | – |
| C[C@H]1CCCCN1c1ccc(N2CCN(S(=O)(=O)c3ccc4c(c3)OCO4)CC2)nn1 | Active | 200 nM | Active | 9% | – | – |
| C[C@H]1CCCCN1c1ccc(N2CCN(S(=O)(=O)c3ccc4c(c3)OCO4)CC2)nc1 | – | 1350 nM | – | – | – | – |
| C[C@H]1CCCCN1c1cnc(N2CCN(S(=O)(=O)c3ccc4c(c3)OCO4)CC2)cn1 | – | > 10000 nM | – | – | – | – |
| O=S(=O)(c1ccccc1Cl)N1CCN(c2ccc(N3CCCCCC3)nn2)CC1 | – | 1270 nM | – | 6% | – | – |
| O=C1CCCCN1c1ccc(N2CCN(S(=O)(=O)c3ccccc3Cl)CC2)nn1 | – | > 10000 nM | – | 51% | – | – |
| C[C@H]1CCCCN1c1ccc(N2CCN(S(=O)(=O)c3cccc(Cl)c3)CC2)nn1 | Active | 760 nM | Active | 22% | 708 nM | – |
| O=S(=O)(c1ccc2c(c1)OCO2)N1CCN(c2ccc(N3CCCCC3)nn2)CC1 | – | 730 nM | – | 55% | 661 nM | – |
| C[C@H]1CCCCN1c1ccc(N2CCN(S(=O)(=O)c3ccc4ncccc4c3)CC2)nn1 | Active | 1170 nM | Active | 7% | 1120 nM | – |
| C[C@H]1CCCN1c1ccc(N2CCN(S(=O)(=O)c3ccc4c(c3)OCO4)CC2)nn1 | – | 2730 nM | – | 14% | 2570 nM | – |
| COc1ccc(S(=O)(=O)N2CCN(c3ccc(N4CCCC[C@@H]4C)nn3)CC2)cc1OC | Active | 2800 nM | Active | 46% | 2630 nM | – |
